Here are results for one compound from patent US20050159442A1, “Protein tyrosine phosphatase 1B (PTP-1B) inhibitors and methods of using the same” (priority 2003, published 2005).

The experiment has as its target T1, human PTP-1B (Homo sapiens, UniProt P18031).
T1 construct: The fusion protein, which lacks the carboxyl terminus 35 amino acid residues of PTP-1B; made in house; host or cells: Escherichia coli (pGEX system)
T1 sequence (P18031 1-400 limits assumed): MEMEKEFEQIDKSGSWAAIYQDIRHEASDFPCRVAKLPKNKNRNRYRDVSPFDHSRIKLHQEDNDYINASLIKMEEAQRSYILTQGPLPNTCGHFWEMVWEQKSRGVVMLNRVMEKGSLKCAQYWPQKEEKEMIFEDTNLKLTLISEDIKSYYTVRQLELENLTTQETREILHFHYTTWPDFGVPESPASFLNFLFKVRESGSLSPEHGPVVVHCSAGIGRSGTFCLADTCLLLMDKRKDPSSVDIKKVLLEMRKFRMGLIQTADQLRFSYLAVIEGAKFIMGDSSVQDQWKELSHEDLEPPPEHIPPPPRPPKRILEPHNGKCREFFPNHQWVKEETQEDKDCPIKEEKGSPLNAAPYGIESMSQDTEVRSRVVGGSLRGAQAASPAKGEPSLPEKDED
Description: Assay for PTP-1B phosphatase activity (malachite green, phosphorylated insulin receptor peptide). It is filed as biochemical. As to conditions: truncated human PTP-1B GST fusion protein, phosphorylated kinase domain of insulin receptor-1 as substrate, absorbance at 650 nm, read-out: IC50 of inhibition of PTP-1B phosphatase activity. Here is the method:
PTP-1B phosphatase activity was measured as its ability to dephosphorylate a phosphorylated insulin receptor. In particular, a phosphorylated peptide derived from insulin receptor was used for the assay. The dephosphorylation reaction was monitored using a malachite green assay (Lanzetta et al., Anal Biochem. 1979, 100: 95-7), which measures the release of inorganic phosphate from the activated insulin receptor or the phosphorylated peptide derived from insulin receptor. A PTP-1B inhibitor decreases the yield of inorganic phosphate when it is added to the assay.
A substantially purified, soluble, truncated human PTP-1B GST fusion protein was used as the source of PTP-1B enzyme. […]
PTP-1B GST fusion protein (10 ng in 48 μl of assay buffer) was mixed with the phosphorylated kinase domain of insulin receptor-1 (70 μM in 201 μl of assay buffer) and the test compound (at desired concentration in 2 μl DMSO). […] After additional 30 minutes incubation at room temperature, the amount of inorganic phosphate released from the phosphorylated kinase domain of insulin receptor-1 in the reaction mixture was measured by the absorbance at 650 nm. […]

As for `Cc1ccc(CC/N=C2\N/C(=N\CCc3ccc(C)cc3)c3cnccc32)cc1` [Formula II, 1,3-Bis-(2-p-tolyl-ethylimino)-2,3-dihydro-1H-pyrrolo[3,4-c]pyridine], the half-inhibitory concentration (IC50) is 910 nM.

Usually IC50 stands for the point on the concentration scale where inhibition reaches its midpoint.
